For three molecules, Ki results are on record in PMC6327989 (Journal of Enzyme Inhibition and Medicinal Chemistry, 2019).

The structures appear in SMILES notation.

The assay deals with recombinant Sphingomyelinase D (SMase D) from L. laeta venom (Loxosceles laeta, UniProt Q8I914). As to the kind of experiment: biochemical.
Chain of recombinant Sphingomyelinase D (SMase D) from L. laeta venom (Q8I914 27-311 limits assumed): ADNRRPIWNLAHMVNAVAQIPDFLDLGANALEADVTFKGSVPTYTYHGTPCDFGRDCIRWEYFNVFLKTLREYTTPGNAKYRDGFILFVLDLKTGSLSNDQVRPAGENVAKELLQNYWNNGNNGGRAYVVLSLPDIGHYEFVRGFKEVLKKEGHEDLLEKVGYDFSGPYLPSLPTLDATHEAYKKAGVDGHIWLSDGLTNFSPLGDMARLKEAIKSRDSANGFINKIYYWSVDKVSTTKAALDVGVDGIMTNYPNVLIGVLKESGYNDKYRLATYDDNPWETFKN
`Cc1ccc(S(=O)(=O)Oc2cc(N)nc(SCc3ccc(C#N)cc3)n2)cc1` [compound 1, 6-amino-2-((4-cyanobenzyl)thio)pyrimidin-4-yl 4-methylbenzenesulphonate]: the Ki was determined as 540 ± 130 nM.
Turning to `Cc1[nH]c2ccccc2c1/C=N/NS(=O)(=O)c1ccc(Br)cc1` [compound 5, 4-bromo-N-[(E)-(2-methyl-1H-indol-3-yl)methyleneamino]benzenesulfonamide], the inhibition constant Ki came out at 490 ± 100 nM.
As to `Cc1cc(OS(=O)(=O)c2ccc(Cl)cc2)cc2c1C(=O)/C(=C/c1cccnc1)O2` [compound 6, 4-methyl-3-oxo-2–(3-pyridylmethylene)benzo[3,4-b]furan-6-yl 4-chlorobenzenesulphonate], the inhibition constant (Ki) is 590 ± 230 nM.
